Source: patent US5439940A, “Benz[e]indene derivatives” (priority 1992, dated 1995)
Read-outs that look alike come from different tables or passages of the source.

Columns and labels:
[1] = tested on: acetic acid writhing reactions; assay: Analgesic effect (acetic acid writhing, Newbould); type: in vivo, mouse (NMRI); details: Mus musculus, 1 h, read-out: Analgesic effect ID50
Method: The characteristic "writhing reactions" were counted for a period of 5 minutes, starting from the fifth minute after challenge. […] Each group of animals consisted of at least 10 mice. […]

[2] = tested on: carrageen-induced paw volume; assay: Antiinflammatory effect (carrageen paw, Winter et al.); type: in vivo, rat (Wistar); details: po, read-out: Antiinflammatory effect ID30
Method: The antiinflammatory effect was investigated on Wistar rats weighing 150-180 g according to the method of Winter et al. 0.1 ml of a 1 percent carrageen suspension was injected subcutaneously into the plantar region of one of the hind paws. The animals were fasted for 12 hours and received drinking water ad libitum. One hour before treatment with the test compound the rats were hydrated orally with 30 ml/kg of tap water. The test compounds and the vehicle were administered p.o. in a volume of 10 ml/kg, then 1 hour later carrageen was applied. The volume of the treated paw was measured by mercury-plethysmometer before and 3 hours after injection in such a way that displacement of the liquid arising from the volume alteration was indicated on a millimeter scale. […] A., Risley, E. A., Nuss, G. W.: Proc. Soc.

hexobarbital narcosis = assay: Hexobarbital narcosis potentiating effect on mice; type: in vivo, mouse
Method: The hexobarbital narcosis potentiating effect was examined on mice. Groups consisting of 6 animals were used for each dose. The animals were treated orally with the test compound, whereby sleeping was induced 1 hour later by administering a 40 mg/kg i.v. dose of hexobarbital both to the test and control groups. […] ED50 values were calculated from the thus-transformed data [Kaergaard Nielsen C. et al., Arch. Int. Pharmacodyn. 2, 170 (1967)].

spontaneous motility = assay: Spontaneous motility inhibiting activity (Dews equipment); type: in vivo; details: Mus musculus, 0.5 h; oral, beam interruptions within 30 minutes; read-out: Motility inhibiting activity ID50
Method: The spontaneous motility inhibiting activity was examined according to the method of Borsy et al. Groups consisting of 3 mice each were treated orally with different doses of the compounds to be tested, then the test animals were placed in a Dews equipment. In this equipment the number of interruptions of infrared beam within 30 minutes was counted. […] [Borsy, J., Csanyi, E., Lazar, I.: Arch. Int.. Pharmacodyn. 124, 1 (1960)].

[3] = tested on: learned conditioned avoidance reflex; assay: Antipsychotic effect: inhibition of conditioned avoidance reflex (shuttle box); type: in vivo, rat (male Wistar)
Method: The antipsychotic (neuroleptic) effect was measured by the inhibition of the learned conditioned avoidance reflex. The male Wistar rats used for the study were of 120-150 g bodyweight at the commencement of learning. […] In response to a suitable warning stimulus, in order to avoid the punishing (unconditioned) stimulus, animals within the box passed through the gate from one part over the other. The warning, i.e. conditioned stimulus (CS), a white light (1 Hz) blinking for 15 seconds, was applied at the place of the actual animal existence. The unconditioned stimulus (US), in form of 0.6 mA intensity electric shock, was randomly applied to the paw during the last 5 seconds of the conditioned stimulus. Animal's movement during the CS and US from one part of the box over the other, was defined as avoidance and escape responses, respectively. Both responses ceased the actual stimulus and stopped the trial. The time elapsed until the next trial (intertrial interval, ITI) was 15 seconds. While one experiment was carried out daily, an experiment consisted of 80 trials. Learning efficiency was expressed as percentage of the successful to the total avoidances. […] Dosing was carried out once a week, one hour before the measurement in the shuttle box.

[4] = Acute toxicity on mice (oral LD50); details: mouse, in vivo, 7 days observation, maximal dose 1000 mg/kg
Method: Mice belonging to the NMRI strain (body weight 20-25 g, both male and female) were used, 6 to 10 animals for each dose. The test compound was administered orally in a volume of 20 ml/kg. The applied maximal dose was 1000 mg/kg. […] The mice were kept in a plastic cage at room temperature. The animals got tap water and standard mouse fodder ad libitum. The toxicity data were determined by the aid of the method of Litchfield and Wilcoxon [Litchfield, J. T., Wilcoxon, F. W.: J. Pharmacol. Exp. Ther., 96, 99 (1949)].

catalepsy = assay: Catalepsy; type: in vivo, rat (Wistar); details: rat
Method: The extrapyramidal syndrome, the most important side effect limiting the application of the neuroleptic drugs in man, can be produced in experimental animals in the form of catalepsy. Our experiments in 150-160 g Wistar rats were performed according to Morpurgo. The catalepsy, appearing 60 minutes after dosing, was scored as follows. Both forelegs of each animal were put for 10 seconds onto a rubber stopper of 3 cm height, then for additional 10 seconds onto a same stopper of 9 cm height. […] The procedure was repeated in each 30 minutes during four hours, obtaining scores proportional to the degree of the catalepsy. Results were used to calculate the minimum effective dose [MED, the lowest dose resulting statistically significant alteration, c.f.: Morpurgo, C.: Arch. Int.

shocks tolerated = assay: Anxiolytic effect (Vogel et al.); type: in vivo, rat (male Wistar)
Method: The anxiolytic effect was tested by using the method of Vogel et al. Male Wistar rats of 160-180 g bodyweight were kept free of food and drinking water for 24 and 48 hours, respectively. Test and carrier substances were administered intraperitoneally two hours before testing. Animals within the experimental chamber were provided with drinking water through an inserted tube. After the animals' each twenty lapping for water the device emitted a 2 mA intensity electric shock through the drinking tube. During 5 minutes the shocks tolerated by the animals in order to quench their thirst were counted. The effect of treatment was expressed as the % increase of the tolerated shocks. The minimum effective dose (MED) was determined for each test compound [Voqel, J. R., Beer, B., Clody, D. E.: Psychopharmacologia (Berl.) 21, 1 (1971)].

[5] = tested on: experimental coronary insufficiency; assay: Antianginal effect (glanduitrine-induced coronary insufficiency, Nieschultz); type: in vivo, rat (male); details: Rat2, iv; rat, 2 mg/kg, glanduitrine 4 NE/kg i.v., T-wave; read-out: Inhibition in a dose of 2 mg/kg
Method: The test was carried out on male rats weighing 180-220 g. The animals were narcotized with the aid of chloralose-urethane. ECG was registered by means of needle electrodes in standard II output. Antianginal effect was tested according to the method of Nieschultz. Experimental coronary insufficiency was induced by administering glanduitrine (4 NE/kg i.v.).

[6] = mice, 0.75% acetic acid one hour after treatment
[7] = rat, p.o., 1 hour before carrageen, paw volume 3 hours after

SMILES | ED50 [1, 6] [mg/kg] | ED30 [2, 7] [mg/kg] | ED50 (hexobarbital narcosis; Mus musculus, oral, 1 hour before hexobarbital 40 mg/kg i.v., sleeping time >2.5 times control, read-out: ED50 hexobarbital narcosis potentiation) [mg/kg] | tranquillo-sedative activity rank (in words) (hexobarbital narcosis; compared within the structural group) | ED50 (spontaneous motility) [mg/kg] | ED50 ([3]; 1 h, rat, dosing one hour before measurement, read-out: Conditioned reflex ID50) [mg/kg] | character when administered in higher doses (in words) ([3]; higher doses) | antipsychotic effect compared with reference substances (in words) ([3]; rat) | LD50 at 168 h [4] [mg/kg] | Therapeutic index (Catalepsy MED / Conditioned Reflex ID50) (catalepsy) | Catalepsy MED (catalepsy; scored from 60 minutes after dosing, four hours) [mg/kg] | minimal effective dose (shocks tolerated; ip, 2 h, rat, intraperitoneal, two hours before testing, read-out: Anxiolytic effect MED) [mg/kg] | anxiolytic effect compared with Chlordiazepoxide and Meprobamate (in words) (shocks tolerated; rat) | character in smaller doses (in words) (shocks tolerated; smaller doses) | inhibition in vivo at 2 mg/kg [5] [%] | ED50 [1] [mg/kg] | ED30 ([2]; Rattus norvegicus, 3 h) [mg/kg]
CC(=O)Nc1ccc(O)cc1 [Paracetamol, reference compound] | 421 | 195 | – | – | – | – | – | – | – | – | – | – | – | – | – | – | –
OC(CNC1CC1)CON=C1CCc2c1ccc1ccccc21 (stereo not shown) [Example 17, 3-[3-(Cyclopropylamino)-2-hydroxypropoxyimino]-2,3-dihydro-1H-benz[e]indene] | 14 | 40 | 11 | the most active member in the structural group | 6 | 26.3 | neuroleptic | superior to Thioridazine and inferior to Chlorpromazine | 660 | 3.8 | 100 | 0.1 | superior to the reference substances by orders of magnitude | anxiolytic | 50 | – | –
CC(=O)Oc1ccccc1C(=O)O [Acetylsalicylic acid, reference compound] | – | – | – | – | – | – | – | – | – | – | – | – | – | – | – | 261 | 62
